Test results from patent publication US20240335569A1, “FIBROBLAST ACTIVATION PROTEIN INHIBITORS AND USE THEREOF” (3 B PHARMACEUTICALS GMBH, priority 2021, published 2024).

Assays:
[1] = target: Human recombinant FAP (Homo sapiens (Human), UniProt Q12884); assay: Surface plasmon resonance assay (Biacore T200, SCK); assay type: binding; settings: SPR dissociation half-life
Procedure, shortened: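 Anti-FAP antibody amine-coupled to CM5 chip (7000 RU), human recombinant FAP captured at 20 μg/mL; compounds run in single-cycle kinetics at 25° C in HBST with 0.1% DMSO, top concentration 500 nM. Reference-cell and buffer-run drift subtraction; kon, koff, KD, t1/2 from 1:1 Langmuir fit, reported as pKD.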

[2] = system: HT-29 cells; assay: Stability in the presence of tumor cells (HT-29), FAP IC50 of supernatants; assay type: in vitro ADME, human
Method: The stability of exemplary compounds was further assessed in the presence of a variety of human cell lines from different tissue origins. […] Compounds were diluted in DMEM without phenol red (Biochrom, #F0475) including 2 mM L-glutamine. 400 μL of a 10 μM solution of the test compound was incubated for 24 hours at 37° C. and 5% CO2 in the presence of cells as well as in control wells (without cells) of the same 24-well plate. IC50/pIC50 determination of the supernatants was performed as described above.

[3] = system: 786-O; assay: Stability in the presence of human cell lines (786-O); assay type: in vitro ADME; settings: Kidney, 24 hours
Method: (§1) Residual activity was calculated as follows: […]

[4] = system: A549; assay: Stability in the presence of human cell lines (A549); assay type: in vitro ADME; settings: A549, Lung; 24 hours
Method: as §1

[5] = system: AsPC-1; assay: Stability in the presence of human cell lines (AsPC-1); assay type: in vitro ADME; settings: AsPC-1, Pancreas; 24 hours
Method: as §1

[6] = system: C4-2; assay: Stability in the presence of human cell lines (C4-2); assay type: in vitro ADME; settings: C4-2, Prostate; 24 hours
Method: as §1

[7] = system: HEC-265; assay: Stability in the presence of human cell lines (HEC-265); assay type: in vitro ADME; settings: HEC-265, Endometrium; 24 hours
Method: as §1

[8] = system: HT-1376; assay: Stability in the presence of human cell lines (HT-1376); assay type: in vitro ADME; settings: HT-1376, Bladder; 24 hours
Method: as §1

[9] = system: K-562; assay: Stability in the presence of human cell lines (K-562); assay type: in vitro ADME; settings: K-562, Blood; 24 hours
Method: as §1

[10] = system: MDA-MB-436; assay: Stability in the presence of human cell lines (MDA-MB-436); assay type: in vitro ADME; settings: MDA-MB-436, Breast; 24 hours
Method: as §1

[11] = system: SCOV-3; settings: SCOV-3, Ovarian; 24 hours
Method: Cells were cultured in McCoys's 5A modified medium (Biochrom, #F1015) including 10% fetal bovine serum (FBS), 2 mM L-glutamine, 100 U/ml penicillin and 100 μg/mL streptomycin (growth medium). […] 1 mL of the cell suspension were seeded in 24-well plates and incubated overnight at 37° C. and 5% CO2. The next day, cells were washed twice and growth medium was exchanged against DMEM without phenol red (Biochrom, #F0475) including 2 mM L-glutamine. Test compound was diluted in DMEM without phenol red (Biochrom, #F0475) including 2 mM L-glutamine. 400 μL of a 10 μM solution of the test compound was incubated for 24 hours at 37° C. and 5% CO2 in the presence of cells as well as in control wells (without cells) of the same 24-well plate.
25 μL of a 30 μM substrate solution, diluted in assay buffer, was added. All solutions were equilibrated at 37° C. prior to use. […] RFU/sec was calculated by SoftMax Pro software and plotted against test compound concentration. Four parameter logistic (4PL) curve fitting and IC50/pIC50 calculations were performed using GraphPad Prism 9.1 software. Residual activity was calculated as follows: […]
The stability of exemplary compounds was further assessed in the presence of a variety of human cell lines from different tissue origins. […] Residual activity was calculated as follows: […]

[12] = system: U2-OS; assay: Stability in the presence of human cell lines (U2-OS); assay type: in vitro ADME; settings: Sarcoma (Bone), 24 hours
Method: as §1

[13] = system: U87MG; assay: Stability in the presence of human cell lines (U87MG); assay type: in vitro ADME; settings: Brain, 24 hours
Method: as §1

[14] = system: WI-38; assay: Stability in the presence of human cell lines (WI-38); assay type: in vitro ADME; settings: WI-38, Fibroblast (Lung); 24 hours
Method: as §1

[15] = system: WM-266-4; assay: Stability in the presence of human cell lines (WM-266-4); assay type: in vitro ADME; settings: WM-266-4, Skin; 24 hours
Method: as §1

[16] = target: HEK-FAP cells (HEK293 cells engineered to express the human FAP) (Homo sapiens (Human), UniProt Q12884); assay: LigandTracer assay with 111In-labeled compounds; assay type: binding; settings: 111In-labeled compound
Method: HEK293 cells (human embryonic kidney cells) were engineered to express the human FAP. […] Cell concentrations were adjusted to 3×10^5 mL^−1, and 3.000 μL of the suspension was dispensed into a poly-lysine-coated, clear cell dish (10 cm). Approximately 24 hours after re-seeding, the medium was replaced by assay medium (Ham's medium with 20 mM HEPES) containing 1% FCS. The dish was placed in the LigandTracer® device and a baseline measurement was obtained using the LigandTracer® Control software (version 2.4). […] To determine the dissociation rate (kd) the cells were washed and subsequently incubated with fresh assay medium for several hours.

Human recombinant FAP, sequence (Q12884 whole entry): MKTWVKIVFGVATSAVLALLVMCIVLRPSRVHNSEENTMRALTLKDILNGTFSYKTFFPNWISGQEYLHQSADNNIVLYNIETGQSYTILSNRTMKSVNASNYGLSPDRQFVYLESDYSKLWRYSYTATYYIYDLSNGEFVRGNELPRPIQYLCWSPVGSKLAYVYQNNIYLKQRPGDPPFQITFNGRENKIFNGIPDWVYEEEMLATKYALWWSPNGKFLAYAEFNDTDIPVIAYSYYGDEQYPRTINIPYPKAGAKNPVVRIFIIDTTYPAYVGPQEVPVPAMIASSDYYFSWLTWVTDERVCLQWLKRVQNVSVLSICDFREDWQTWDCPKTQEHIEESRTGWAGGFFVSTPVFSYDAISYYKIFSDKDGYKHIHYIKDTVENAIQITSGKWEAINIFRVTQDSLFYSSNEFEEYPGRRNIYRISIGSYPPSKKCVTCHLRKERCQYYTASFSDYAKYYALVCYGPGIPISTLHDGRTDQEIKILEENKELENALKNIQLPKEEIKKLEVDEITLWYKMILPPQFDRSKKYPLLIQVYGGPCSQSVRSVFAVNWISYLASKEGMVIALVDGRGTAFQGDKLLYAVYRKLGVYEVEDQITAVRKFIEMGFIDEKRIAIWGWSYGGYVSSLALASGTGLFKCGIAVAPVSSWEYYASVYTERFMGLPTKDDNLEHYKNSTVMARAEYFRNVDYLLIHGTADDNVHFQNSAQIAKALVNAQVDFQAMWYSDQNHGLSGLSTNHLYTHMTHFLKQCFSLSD

For `N#C[C@@H]1CC(F)(F)CN1C(=O)CNC(=O)c1ccnc2ccc(OCCCN3CCN(C(=O)CN4CCN(CC(=O)O)CCN(CC(=O)O)CCN(CC(=O)O)CC4)CC3)cc12` [Compound 3BP-2929, reference compound], the “HL [min] (Biacore)” value [1] was 85 min, the “pIC50 (incubation in cell medium w/o HT-29)” value ([2]; 10 μM compound, 24 hours at 37° C. in control wells without cells, supernatant tested on recombinant human FAP) was 8.7 and the “pIC50 (incubation in the presence of HT-29 cells)” value ([2]; 10 μM compound, 24 hours at 37° C. with HT-29 cells, supernatant tested on recombinant human FAP) was 7.9. The “Residual Stability (%)” value ([2]; HT-29, Intestine, 24 hours) was 14%, the “stability in the presence of HT-29 cells (in words)” value ([2]; HT-29 cells) was “unstable” and the “Residual activity after incubation with HT-29 cells for 24 hours (%)” value ([2]; HT-29 cells, 24 hours) was 16%. The “Residual Stability (%)” value [3] was 85%, the “Residual Stability (%)” value [4] was 20% and the “Residual Stability (%)” value [5] was 35%. The “Residual Stability (%)” value [6] was 19%, the “Residual Stability (%)” value [7] was 65% and the “Residual Stability (%)” value [8] was 10%. For the same molecule, the “Residual Stability (%)” value [9] was 70%, the “Residual Stability (%)” value [10] was 17% and the “Residual Stability (%)” value [11] was 4%. The “Residual Stability (%)” value [12] was 30%, the “Residual Stability (%)” value [13] was 45% and the “Residual Stability (%)” value [14] was 26%. The “Residual Stability (%)” value [15] was 70% and the “HL (half-life)” value [16] was 4.6 ± 2.37 h.
